Experimental findings from US6677309B1, “Anti-cancer drug aldehyde conjugate drugs with enhanced cytotoxicity compounds, compositions and methods” (University Technology Corporation, priority 1997, dated 2004) are described below.

Series [1] deals with self-complementary DNA octamer (GC)4. Nature of the series: Drug-DNA conjugate formation with (GC)4, HPLC. The format is biochemical. As to conditions: for DNA reacted to form drug-DNA conjugates: 33 μM (GC)4, 33 μM conjugate, 4% DMSO. On the procedure:
The amount of available formaldehyde was 99 μM (3×33 μM). […] The experiment was also run at 25° C. in pH 6.0 phosphate buffer containing 4% DMSO. […] The ratio for conjugate 1 was assumed to be 24:1, based upon the value for conjugate 2. […] Under these circumstances, the conjugate 1 area was estimated based upon its 480 nm absorbance, assuming the 24:1 ratio for A260:A480.
The formation of drug-DNA conjugates at 25° C. was monitored by HPLC (Method II). […] The experiment was also run in pH 6.0 phosphate buffer containing 4% DMSO.

Series [2] in a line: Stability in DMSO and DMSO/water, NMR or HPLC. In kind it is physicochemical. On the procedure: Crystalline dimeric formaldehyde conjugate of daunorubicin (2.8 mg, 2.6 μmol) was dissolved in 500 μL of DMSO-d6 (stored over 3 A molecular sieves) and analyzed by 400 MHz, ^1H NMR. […] Upon addition of 25 μL of D2O to the 500 μL DMSO-d6 sample, the dimeric formaldehyde conjugate of daunorubicin reacted over a 24 h period to form an equilibrium mixture consisting of 67% dimeric formaldehyde conjugate of daunorubicin and 32% of an intermediate. Because of the complexity of the spectrum, a structure could not be assigned to the intermediate; however, the intermediate appeared to have an oxazolidine ring. Upon addition of 3 equiv of hydrochloric acid in 130 μL of deuterium oxide, hydrolysis to daunorubicin-HCl was complete. The hydrochloric acid solution was prepared by the addition of 10 μL of concentrated HCl to 990 μL of D2O. The formaldehyde released from the dimeric formaldehyde conjugate of daunorubicin was detected as its hydrate. The final product was identified as daunorubicin by comparison of the NMR spectrum with that of a sample of daunorubicin plus 3 equiv of HCl. Further, the final product was isolated by removal of all volatile components under vacuum (0.1 Torr), and its ^1H NMR spectrum was identical to that of daunorubicin-HCl.
Amorphous dimeric formaldehyde conjugate of daunorubicin, when worked up in methylene chloride, was stable in DMSO for at least 4 days. It hydrolyzed with added D2O and hydrochloric acid in a manner similar to that of the crystalline material. When worked up in chloroform, amorphous dimeric formaldehyde conjugate of daunorubicin had less stability in DMSO, presumably due to traces of HCl from the chloroform.
A 1.3 mg sample of N-acetyl-3′-N,4′-O-methylenedaunorubicin was dissolved in […] of DMSO and analyzed over time by HPLC. […] At this time, […] of water was added to the DMSO/N-acetyl monomeric formaldehyde conjugate of daunorubicin solution, establishing a 50:50 DMSO:water mixture (v/v). In this solution, the N-acetyl-3′-N,4′-O-methylenedaunorubicin remained 91% intact (9% degradation to daunorubicin) over a period of 6 days, based upon the HPLC analysis.
A pH 6 triethyl ammonium acetate solution containing 13.1 μmol of epidoxorubicin-HCl and 6.6 mmol of […] was allowed to react in the dark at 25° C. for 30 min. The mixture was then extracted with chloroform with vigorous stirring for 20 min. The chloroform solution was dried over sodium sulfate and the chloroform removed by rotary evaporation. The resulting dry solid was redissolved in 1.0 mL of chloroform. To this was added 10 mL of n-hexane. After 2 days, a large amount of precipitate had formed, which was washed with 3×5 mL of n-hexane, followed by 4×1 mL of water.
The sample was maintained at ambient temperature for 2 h; after this period no change in the spectrum was observed. […] A stock 122 mM solution of HCl in D2O was prepared by adding concentrated hydrochloric acid to D2O. […] Complete hydrolysis occurred upon addition of ca. 2-3 equiv of HCl. A similar experiment was performed using HCl in H2O. […] This solution was incubated at 37° C. for 24 h prior to NMR analysis.

For `COc1cccc2c1C(=O)c1c(O)c3c(c(O)c1C2=O)C[C@@](O)(C(C)=O)C[C@@H]3O[C@H]1C[C@H]2[C@H](OCN2CN2CO[C@@H]3[C@H](C)O[C@@H](O[C@H]4C[C@](O)(C(C)=O)Cc5c(O)c6c(c(O)c54)C(=O)c4c(OC)cccc4C6=O)C[C@@H]32)[C@H](C)O1` [DAUNF, bis(3′-N-(3′-N,4′-O-methylenedaunorubicinyl))methane], in series [1] (33 μM (GC)4, 55 μM conjugate, pH 7.4, 25° C., after approximately 1 min), the “(GC)4 reacted relative to the equivalent amount of daunorubicin and formaldehyde” value is on record as “four times as much (GC)4”. The “extent of DNA reaction to drug-DNA conjugates” value in series [1] (317 μM (GC)4, 357 μM conjugate, pH 7.4 phosphate buffer, 25° C., 41 h) was “completely reacted”. For the same compound, in series [2] (25 μL D2O added to 500 μL DMSO-d6, over 24 h, NMR), the “share of conjugate in the equilibrium mixture” value is reported as 67%. The “time stable in DMSO” value is “at least 14 h” in series [2] (crystalline material in DMSO-d6 stored over molecular sieves, 1H NMR) and “at least 4 days” in series [2] (dry DMSO / DMSO-d6, 1H NMR).
Consider `COc1cccc2c1C(=O)c1c(O)c3c(c(O)c1C2=O)CC(O)(C(=O)CO)CC3OC1CC2C(OCN3CN2COC2C(C)OC(OC4C[C@](O)(C(=O)CO)Cc5c(O)c6c(c(O)c54)C(=O)c4c(OC)cccc4C6=O)CC23)C(C)O1` (stereo partly drawn) [EPIF], for which the “DNA reacted to form drug-DNA conjugates” value in series [1] (pH 6.0 phosphate buffer, 25° C., 5 h) is reported as 64%; in series [1] (pH 7.3 phosphate buffer, 25° C., 24 h), 68%. Besides, in series [1] (398 μM (GC)4, 796 μM conjugate, pH 7.3 phosphate buffer, 25° C., 5 h), the “DNA that had formed drug-DNA conjugates” value worked out at 91%. Also, the “time stable in DMSO” value in series [2] (dry DMSO / DMSO-d6, 1H NMR) is on record as “at least 4 days”.
